Experimental data taken from PMC11571207, “Stereorandomized Oncocins with Preserved Ribosome Binding and Antibacterial Activity” (Journal of Medicinal Chemistry, 2024).
Where two headings read alike, the source gives them in different places. No end group written: not given here.

Key:
A. baumannii ATCC19606 = assay: microbe, parasite or virus in culture; conditions: for MIC A. baumannii ATCC19606: supplement CSV
How it was run: (§1)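 Read-out was visible growth after MTT addition, the MIC being the lowest inhibitory peptide concentration. Bacteria grown to log phase in LB were exposed in MH medium to peptide from 64 μg/mL in twofold dilutions for 15-18h at 37°C.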

E. coli W3110 = assay: microbe, parasite or virus in culture; conditions: for MIC E. coli W3110: supplement CSV
How it was run: as §1

K. pneumoniae NCTC 418 = assay: microbe, parasite or virus in culture; conditions: for MIC K. pneumoniae NCTC418: supplement CSV
How it was run: as §1

P. aeruginosa PAO1 = assay: microbe, parasite or virus in culture; conditions: for MIC P. aeruginosa PAO1: supplement CSV
How it was run: as §1

S. aureus COL (MRSA) = assay: microbe, parasite or virus in culture; conditions: for MIC S. aureus COL (MRSA): supplement CSV
How it was run: as §1

E. cloacae = assay: microbe, parasite or virus in culture; conditions: for MIC E. cloacae: supplement CSV
How it was run: (§2)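 Minimal inhibitory concentrations come from broth microdilution in MH medium, with a top peptide concentration of 64 μg/mL halved serially.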

K. pneumoniae OXA-48 = assay: microbe, parasite or virus in culture; conditions: for MIC K. pneumoniae OXA-48: supplement CSV
How it was run: as §2

[1] = tested on: P. aeruginosa PA14 2P4 (pmrB); assay: microbe, parasite or virus in culture; conditions: for MIC P. aeruginosa PA14 2P4: supplement CSV
How it was run: as §2

P. aeruginosa PA14 = assay: microbe, parasite or virus in culture; conditions: for MIC P. aeruginosa PA14: supplement CSV
How it was run: as §2

P. aeruginosa ZEM-1A = assay: microbe, parasite or virus in culture; conditions: for MIC P. aeruginosa ZEM-1A: supplement CSV
How it was run: as §2

P. aeruginosa ZEM9A = assay: microbe, parasite or virus in culture; conditions: for MIC P. aeruginosa ZEM9A: supplement CSV
How it was run: as §2

[2] = tested on: P. aeruginosa PA14 4.13 (phoQ); conditions: for MIC P. aeruginosa PA14 4.13: supplement CSV
[3] = tested on: P. aeruginosa PA14 4.18 (pmrB); conditions: for MIC P. aeruginosa PA14 4.18: supplement CSV
human red blood cells = assay: Hemolysis assay, minimum hemolytic concentration
[4] = polymyxin B resistant strain, 12.5% MHB pH 7.4, 16–20 h at 37 °C
[5] = polymyxin B resistant strain, full MHB pH 7.4, 16–20 h at 37 °C

VDKPPYLPRPRPPRRIYNR [sr-Onc] (VDKPPYLPRPRPPRRIYNR-NH2; also: all 19 residues stereorandomized (1:1 L/D mixture))
MIC A. baumannii, 12.5% MHB (A. baumannii ATCC19606; A. baumannii ATCC19606, 12.5% Müller–Hinton medium, 16–20 h at 37 °C): 8 µg/mL | MIC A. baumannii, Full MHB (A. baumannii ATCC19606; A. baumannii ATCC19606, full Müller–Hinton medium, 16–20 h at 37 °C): 32 µg/mL | MIC A. baumannii ATCC19606 (A. baumannii ATCC19606; 12.5% MH pH 7.4): 8 µg/mL | MIC A. baumannii ATCC19606 (A. baumannii ATCC19606; full MH pH 7.4): 32 µg/mL | MIC E. coli, 12.5% MHB (E. coli W3110; E. coli W3110, 12.5% Müller–Hinton medium, 16–20 h at 37 °C, broth microdilution): 8 µg/mL | MIC E. coli, Full MHB (E. coli W3110; E. coli W3110, full Müller–Hinton medium, 16–20 h at 37 °C, broth microdilution): 32 µg/mL | MIC E. coli W3110 (E. coli W3110; 12.5% MH pH 7.4): 8 µg/mL | MIC E. coli W3110 (E. coli W3110; full MH pH 7.4): 32 µg/mL | MIC K. pneumoniae, 12.5% MHB (K. pneumoniae NCTC 418; K. pneumoniae NCTC 418, 12.5% Müller–Hinton medium, 16–20 h at 37 °C): > 16 µg/mL | MIC K. pneumoniae, Full MHB (K. pneumoniae NCTC 418; K. pneumoniae NCTC 418, full Müller–Hinton medium, 16–20 h at 37 °C): > 64 µg/mL | MIC K. pneumoniae NCTC418 (K. pneumoniae NCTC 418; 12.5% MH pH 7.4): >16 µg/mL | MIC K. pneumoniae NCTC418 (K. pneumoniae NCTC 418; full MH pH 7.4): >64 µg/mL | MIC P. aeruginosa, 12.5% MHB (P. aeruginosa PAO1; P. aeruginosa PAO1, 12.5% Müller–Hinton medium, 16–20 h at 37 °C): 8 µg/mL | MIC P. aeruginosa, Full MHB (P. aeruginosa PAO1; P. aeruginosa PAO1, full Müller–Hinton medium, 16–20 h at 37 °C): > 64 µg/mL | MIC P. aeruginosa PAO1 (P. aeruginosa PAO1; 12.5% MH pH 7.4): 8 µg/mL | MIC P. aeruginosa PAO1 (P. aeruginosa PAO1; full MH pH 7.4): >64 µg/mL | MIC S. aureus, 12.5% MHB (S. aureus COL (MRSA); S. aureus COL (MRSA), 12.5% Müller–Hinton medium, 16–20 h at 37 °C): >64 / >64 μg/mL | MIC S. aureus, Full MHB (S. aureus COL (MRSA); S. aureus COL (MRSA), full Müller–Hinton medium, 16–20 h at 37 °C): >64 / >64 μg/mL | MIC S. aureus COL (MRSA) (S. aureus COL (MRSA); 12.5% MH pH 7.4): >64 µg/mL | MIC S. aureus COL (MRSA) (S. aureus COL (MRSA); full MH pH 7.4): >64 µg/mL | MIC E. cloacae, 12.5% MHB (E. cloacae; 12.5% MHB pH 7.4, 16–20 h at 37 °C): 8 µg/mL | MIC E. cloacae, full MHB (E. cloacae; full MHB pH 7.4, 16–20 h at 37 °C): > 64 µg/mL | MIC E. cloacae (E. cloacae; 12.5% MH pH 7.4): 8 µg/mL | MIC E. cloacae (E. cloacae; full MH pH 7.4): >64 µg/mL | MIC K. pneumoniae OXA-48, 12.5% MHB (K. pneumoniae OXA-48; carbapenem-resistant, 12.5% MHB pH 7.4, 16–20 h at 37 °C): >64/>64 μg/mL | MIC K. pneumoniae OXA-48, full MHB (K. pneumoniae OXA-48; carbapenem-resistant, full MHB pH 7.4, 16–20 h at 37 °C): >64/>64 μg/mL | MIC K. pneumoniae OXA-48 (K. pneumoniae OXA-48; 12.5% MH pH 7.4): >64 µg/mL | MIC K. pneumoniae OXA-48 (K. pneumoniae OXA-48; full MH pH 7.4): >64 µg/mL | MIC P. aeruginosa PA14 2P4 (pmrB), 12.5% MHB [1, 4]: 16 µg/mL | MIC P. aeruginosa PA14 2P4 (pmrB), full MHB [1, 5]: > 64 µg/mL | MIC P. aeruginosa PA14 2P4 ([1]; 12.5% MH pH 7.4): 16 µg/mL | MIC P. aeruginosa PA14 2P4 ([1]; full MH pH 7.4): >64 µg/mL | MIC P. aeruginosa PA14, 12.5% MHB (P. aeruginosa PA14; 12.5% MHB pH 7.4, 16–20 h at 37 °C, two different duplicate MIC determinations): 32 µg/mL | MIC P. aeruginosa PA14, full MHB (P. aeruginosa PA14; full MHB pH 7.4, 16–20 h at 37 °C, two different duplicate MIC determinations): > 64 µg/mL | MIC P. aeruginosa PA14 (P. aeruginosa PA14; 12.5% MH pH 7.4): 32 µg/mL | MIC P. aeruginosa PA14 (P. aeruginosa PA14; full MH pH 7.4): >64 µg/mL | MIC P. aeruginosa ZEM-1A, 12.5% MHB (P. aeruginosa ZEM-1A; clinical isolate, 12.5% MHB pH 7.4, 16–20 h at 37 °C, cells marked c: single measurement (in duplicates)): >64/64 ^c μg/mL | MIC P. aeruginosa ZEM-1A, full MHB (P. aeruginosa ZEM-1A; clinical isolate, full MHB pH 7.4, 16–20 h at 37 °C, cells marked c: single measurement (in duplicates)): >64/64 ^c μg/mL | MIC P. aeruginosa ZEM-1A (P. aeruginosa ZEM-1A; 12.5% MH pH 7.4): 64 µg/mL | MIC P. aeruginosa ZEM-1A (P. aeruginosa ZEM-1A; full MH pH 7.4): >64 µg/mL | MIC P. aeruginosa ZEM9A, 12.5% MHB (P. aeruginosa ZEM9A; clinical isolate, 12.5% MHB pH 7.4, 16–20 h at 37 °C): 32 µg/mL | MIC P. aeruginosa ZEM9A, full MHB (P. aeruginosa ZEM9A; clinical isolate, full MHB pH 7.4, 16–20 h at 37 °C): > 64 µg/mL | MIC P. aeruginosa ZEM9A (P. aeruginosa ZEM9A; 12.5% MH pH 7.4): 32 µg/mL | MIC P. aeruginosa ZEM9A (P. aeruginosa ZEM9A; full MH pH 7.4): >64 µg/mL | MIC P. aeruginosa PA14 4.13 (phoQ), 12.5% MHB [2, 4]: 16 µg/mL | MIC P. aeruginosa PA14 4.13 (phoQ), full MHB [2, 5]: > 64 µg/mL | MIC P. aeruginosa PA14 4.13 ([2]; 12.5% MH pH 7.4): 16 µg/mL | MIC P. aeruginosa PA14 4.13 ([2]; full MH pH 7.4): >64 µg/mL | MIC P. aeruginosa PA14 4.18 (pmrB), 12.5% MHB [3, 4]: 32 µg/mL | MIC P. aeruginosa PA14 4.18 (pmrB), full MHB [3, 5]: > 64 µg/mL | MIC P. aeruginosa PA14 4.18 ([3]; 12.5% MH pH 7.4): 32 µg/mL | MIC P. aeruginosa PA14 4.18 ([3]; full MH pH 7.4): >64 µg/mL | Haemolysis on hRBC, MHC (human red blood cells; 2.5% human red blood cells (final) in 10 mM phosphate, 150 mM NaCl, pH 7.4, 25 °C, 4 h, visual inspection): >1000 µg/mL | MHC human red blood cells (human red blood cells; supplement CSV): >1000 µg/mL
